Tests used:
RyR2 [1] = biological target: T1, RyR2 (Sus scrofa, UniProt A0A5G2R1W3); assay: [3H]ryanodine binding to cardiac SR; design: species or system porcine; conditions: for [3H]ryanodine binding (RyR2 activity): 50 μM, three hours
T1 construct: cardiac ventricle (RyR2); from tissue; host or cells: porcine cardiac ventricle sarcoplasmic reticulum
Description: (§1) (FIG. 2A) Representative confocal line scans of Ca2+ sparks in the absence (DMSO) or presence of 25 μM nat-1 or ent-1 in permeabilized Casq2−/− cardiomyocytes. (FIG. 2B) Ca2+ spark frequency in Casq2−/− cells treated with 25 μM nat-1, 7, 8, and their respective enantiomers. (FIG. 2C) Comparison of [3H]ryanodine binding to SR isolated from porcine longissimus dorsi (RyR1) or cardiac ventricle (RyR2) in the presence of 50 μM nat-1, ent-1, or tetracaine (tet). (FIG. 2D) Dose response curves for ent-1 and tet inhibition of [3H]ryanodine binding to RyR2. (FIG. 2E) Representative Ca2+ sparks from permeabilized wild-type cardiomyocytes treated with 3 μM ent-1, 25 μM flecainide, or 50 μM tetracaine. Graph indicates amplitude of Ca2+ release of the selected representative sparks over time. (FIG. 2F) Percent change in spark frequency, amplitude, mass, leak, and SR Ca2+ content relative to vehicle (DMSO), obtained from wild-type myocytes. SR Ca2+ content was measured as the Ca2+ transient amplitude elicited by application of 10 mM caffeine (n≥5 cells per group). Data are presented as mean±SEM. N≥30 cells per group for A, B, and F. N=4 replicates for each concentration tested in C and D. *p<0.05 vs DMSO, **p<0.01 vs DMSO, ***p<0.001 vs DMSO by 1-way ANOVA with Tukey's post-hoc test (B) or t-test (C, D, and F).
(§2) Skeletal and cardiac SR were incubated with 50 μM nat-1, ent-1, and tetracaine for three hours. Nat-1 increased RyR1 activity, but had no effect on RyR2 (FIG. 2C). Conversely, ent-1 inhibited RyR2, but had no effect on RyR1. The well-established RyR inhibitor, tetracaine, inhibited both isoforms. Ent-1 was selected to generate full dose response curves for both cardiac and skeletal SR. Ent-1 inhibited RyR2 in a concentration-dependent manner with an apparent IC50 of approximately 0.1 μM and maximal inhibition of approximately 20% (FIG. 2D), but had no effect on RyR1 up to 50 μM (Figure S2). […] To further characterize the Ca^2+ release inhibition by ent-1, the present inventors applied a lower concentration (3 μM) to wild type mouse myocytes and compared results to two other classical Ca^2+ release inhibitors, flecainide and tetracaine (representative line scans and sparks are shown in FIG. 2E).

Casq2^−/− mice = assay: Catecholamine-induced ventricular arrhythmia, ECG in Casq2-/- mice; format: in vivo, mouse; conditions: 30 mg/kg i.p.
Description: (FIG. 3A) Isolated cardiomyocytes were field stimulated at 3 Hz for 20 seconds followed by 40 seconds recording of SCR events (†). Application of 10 mM caffeine (caff) was used to measure SR Ca2+ content. (FIG. 3B) SCR frequency following cessation of pacing. N=63, 27, 31, 63, 30, and 27 cells for […] ent-1, respectively. **p<0.01, ***p<0.001 vs DMSO by t-test. (FIG. 3C) Representative heart rate traces in Casq2−/− mice treated with DMSO or ent-1. Isoproterenol (3.0 mg/kg i.p.) was injected at 0 s. Rhythm strips show arrhythmia features. Ectopic beats (†) produce a variable HR in the traces. (FIG. 3D) Quantification of catecholamine-induced ectopic beats by surface electrocardiogram in Casq2−/− mice injected intraperitoneally with 30 mg/kg (drug/body weight) nat-1 or ent-1 or DMSO of equivalent volume 30 minutes prior to recordings. ***p<0.001 vs DMSO or ###p<0.001 vs nat-1 by Mann-Whitney U-test. (FIG. 3E) Incidence of ventricular tachycardia (VT). p=0.0305 for ent-1 vs DMSO (*) or ent-1 vs nat-1 (#) by Fisher's exact test. N=22 mice per group (D and E). Data in B and D presented as mean±SEM.
To determine whether ent-1 inhibition of Ca^2+ release in cardiomyocytes in vitro translates into activity against ventricular arrhythmia in vivo, Casq2^−/− mice were injected intraperitoneally with 30 mg/kg nat-1, ent-1, or DMSO of equivalent volume. […]

RyR2 [2] = biological target: T2, RyR2 (Mus musculus, UniProt E9Q401); assay: Ca2+ sparks in saponin-permeabilized Casq2-/- ventricular myocytes; format: cell-based; conditions: 25 μM, permeabilized Casq2-/- cardiomyocytes, vs DMSO
T2 construct: spontaneous openings of intracellular RyR2; endogenous in cells; host or cells: ventricular cardiomyocytes isolated from Casq2-/- mice (A1, A6) or wild-type mice (A5)
T2 sequence (E9Q401 whole entry): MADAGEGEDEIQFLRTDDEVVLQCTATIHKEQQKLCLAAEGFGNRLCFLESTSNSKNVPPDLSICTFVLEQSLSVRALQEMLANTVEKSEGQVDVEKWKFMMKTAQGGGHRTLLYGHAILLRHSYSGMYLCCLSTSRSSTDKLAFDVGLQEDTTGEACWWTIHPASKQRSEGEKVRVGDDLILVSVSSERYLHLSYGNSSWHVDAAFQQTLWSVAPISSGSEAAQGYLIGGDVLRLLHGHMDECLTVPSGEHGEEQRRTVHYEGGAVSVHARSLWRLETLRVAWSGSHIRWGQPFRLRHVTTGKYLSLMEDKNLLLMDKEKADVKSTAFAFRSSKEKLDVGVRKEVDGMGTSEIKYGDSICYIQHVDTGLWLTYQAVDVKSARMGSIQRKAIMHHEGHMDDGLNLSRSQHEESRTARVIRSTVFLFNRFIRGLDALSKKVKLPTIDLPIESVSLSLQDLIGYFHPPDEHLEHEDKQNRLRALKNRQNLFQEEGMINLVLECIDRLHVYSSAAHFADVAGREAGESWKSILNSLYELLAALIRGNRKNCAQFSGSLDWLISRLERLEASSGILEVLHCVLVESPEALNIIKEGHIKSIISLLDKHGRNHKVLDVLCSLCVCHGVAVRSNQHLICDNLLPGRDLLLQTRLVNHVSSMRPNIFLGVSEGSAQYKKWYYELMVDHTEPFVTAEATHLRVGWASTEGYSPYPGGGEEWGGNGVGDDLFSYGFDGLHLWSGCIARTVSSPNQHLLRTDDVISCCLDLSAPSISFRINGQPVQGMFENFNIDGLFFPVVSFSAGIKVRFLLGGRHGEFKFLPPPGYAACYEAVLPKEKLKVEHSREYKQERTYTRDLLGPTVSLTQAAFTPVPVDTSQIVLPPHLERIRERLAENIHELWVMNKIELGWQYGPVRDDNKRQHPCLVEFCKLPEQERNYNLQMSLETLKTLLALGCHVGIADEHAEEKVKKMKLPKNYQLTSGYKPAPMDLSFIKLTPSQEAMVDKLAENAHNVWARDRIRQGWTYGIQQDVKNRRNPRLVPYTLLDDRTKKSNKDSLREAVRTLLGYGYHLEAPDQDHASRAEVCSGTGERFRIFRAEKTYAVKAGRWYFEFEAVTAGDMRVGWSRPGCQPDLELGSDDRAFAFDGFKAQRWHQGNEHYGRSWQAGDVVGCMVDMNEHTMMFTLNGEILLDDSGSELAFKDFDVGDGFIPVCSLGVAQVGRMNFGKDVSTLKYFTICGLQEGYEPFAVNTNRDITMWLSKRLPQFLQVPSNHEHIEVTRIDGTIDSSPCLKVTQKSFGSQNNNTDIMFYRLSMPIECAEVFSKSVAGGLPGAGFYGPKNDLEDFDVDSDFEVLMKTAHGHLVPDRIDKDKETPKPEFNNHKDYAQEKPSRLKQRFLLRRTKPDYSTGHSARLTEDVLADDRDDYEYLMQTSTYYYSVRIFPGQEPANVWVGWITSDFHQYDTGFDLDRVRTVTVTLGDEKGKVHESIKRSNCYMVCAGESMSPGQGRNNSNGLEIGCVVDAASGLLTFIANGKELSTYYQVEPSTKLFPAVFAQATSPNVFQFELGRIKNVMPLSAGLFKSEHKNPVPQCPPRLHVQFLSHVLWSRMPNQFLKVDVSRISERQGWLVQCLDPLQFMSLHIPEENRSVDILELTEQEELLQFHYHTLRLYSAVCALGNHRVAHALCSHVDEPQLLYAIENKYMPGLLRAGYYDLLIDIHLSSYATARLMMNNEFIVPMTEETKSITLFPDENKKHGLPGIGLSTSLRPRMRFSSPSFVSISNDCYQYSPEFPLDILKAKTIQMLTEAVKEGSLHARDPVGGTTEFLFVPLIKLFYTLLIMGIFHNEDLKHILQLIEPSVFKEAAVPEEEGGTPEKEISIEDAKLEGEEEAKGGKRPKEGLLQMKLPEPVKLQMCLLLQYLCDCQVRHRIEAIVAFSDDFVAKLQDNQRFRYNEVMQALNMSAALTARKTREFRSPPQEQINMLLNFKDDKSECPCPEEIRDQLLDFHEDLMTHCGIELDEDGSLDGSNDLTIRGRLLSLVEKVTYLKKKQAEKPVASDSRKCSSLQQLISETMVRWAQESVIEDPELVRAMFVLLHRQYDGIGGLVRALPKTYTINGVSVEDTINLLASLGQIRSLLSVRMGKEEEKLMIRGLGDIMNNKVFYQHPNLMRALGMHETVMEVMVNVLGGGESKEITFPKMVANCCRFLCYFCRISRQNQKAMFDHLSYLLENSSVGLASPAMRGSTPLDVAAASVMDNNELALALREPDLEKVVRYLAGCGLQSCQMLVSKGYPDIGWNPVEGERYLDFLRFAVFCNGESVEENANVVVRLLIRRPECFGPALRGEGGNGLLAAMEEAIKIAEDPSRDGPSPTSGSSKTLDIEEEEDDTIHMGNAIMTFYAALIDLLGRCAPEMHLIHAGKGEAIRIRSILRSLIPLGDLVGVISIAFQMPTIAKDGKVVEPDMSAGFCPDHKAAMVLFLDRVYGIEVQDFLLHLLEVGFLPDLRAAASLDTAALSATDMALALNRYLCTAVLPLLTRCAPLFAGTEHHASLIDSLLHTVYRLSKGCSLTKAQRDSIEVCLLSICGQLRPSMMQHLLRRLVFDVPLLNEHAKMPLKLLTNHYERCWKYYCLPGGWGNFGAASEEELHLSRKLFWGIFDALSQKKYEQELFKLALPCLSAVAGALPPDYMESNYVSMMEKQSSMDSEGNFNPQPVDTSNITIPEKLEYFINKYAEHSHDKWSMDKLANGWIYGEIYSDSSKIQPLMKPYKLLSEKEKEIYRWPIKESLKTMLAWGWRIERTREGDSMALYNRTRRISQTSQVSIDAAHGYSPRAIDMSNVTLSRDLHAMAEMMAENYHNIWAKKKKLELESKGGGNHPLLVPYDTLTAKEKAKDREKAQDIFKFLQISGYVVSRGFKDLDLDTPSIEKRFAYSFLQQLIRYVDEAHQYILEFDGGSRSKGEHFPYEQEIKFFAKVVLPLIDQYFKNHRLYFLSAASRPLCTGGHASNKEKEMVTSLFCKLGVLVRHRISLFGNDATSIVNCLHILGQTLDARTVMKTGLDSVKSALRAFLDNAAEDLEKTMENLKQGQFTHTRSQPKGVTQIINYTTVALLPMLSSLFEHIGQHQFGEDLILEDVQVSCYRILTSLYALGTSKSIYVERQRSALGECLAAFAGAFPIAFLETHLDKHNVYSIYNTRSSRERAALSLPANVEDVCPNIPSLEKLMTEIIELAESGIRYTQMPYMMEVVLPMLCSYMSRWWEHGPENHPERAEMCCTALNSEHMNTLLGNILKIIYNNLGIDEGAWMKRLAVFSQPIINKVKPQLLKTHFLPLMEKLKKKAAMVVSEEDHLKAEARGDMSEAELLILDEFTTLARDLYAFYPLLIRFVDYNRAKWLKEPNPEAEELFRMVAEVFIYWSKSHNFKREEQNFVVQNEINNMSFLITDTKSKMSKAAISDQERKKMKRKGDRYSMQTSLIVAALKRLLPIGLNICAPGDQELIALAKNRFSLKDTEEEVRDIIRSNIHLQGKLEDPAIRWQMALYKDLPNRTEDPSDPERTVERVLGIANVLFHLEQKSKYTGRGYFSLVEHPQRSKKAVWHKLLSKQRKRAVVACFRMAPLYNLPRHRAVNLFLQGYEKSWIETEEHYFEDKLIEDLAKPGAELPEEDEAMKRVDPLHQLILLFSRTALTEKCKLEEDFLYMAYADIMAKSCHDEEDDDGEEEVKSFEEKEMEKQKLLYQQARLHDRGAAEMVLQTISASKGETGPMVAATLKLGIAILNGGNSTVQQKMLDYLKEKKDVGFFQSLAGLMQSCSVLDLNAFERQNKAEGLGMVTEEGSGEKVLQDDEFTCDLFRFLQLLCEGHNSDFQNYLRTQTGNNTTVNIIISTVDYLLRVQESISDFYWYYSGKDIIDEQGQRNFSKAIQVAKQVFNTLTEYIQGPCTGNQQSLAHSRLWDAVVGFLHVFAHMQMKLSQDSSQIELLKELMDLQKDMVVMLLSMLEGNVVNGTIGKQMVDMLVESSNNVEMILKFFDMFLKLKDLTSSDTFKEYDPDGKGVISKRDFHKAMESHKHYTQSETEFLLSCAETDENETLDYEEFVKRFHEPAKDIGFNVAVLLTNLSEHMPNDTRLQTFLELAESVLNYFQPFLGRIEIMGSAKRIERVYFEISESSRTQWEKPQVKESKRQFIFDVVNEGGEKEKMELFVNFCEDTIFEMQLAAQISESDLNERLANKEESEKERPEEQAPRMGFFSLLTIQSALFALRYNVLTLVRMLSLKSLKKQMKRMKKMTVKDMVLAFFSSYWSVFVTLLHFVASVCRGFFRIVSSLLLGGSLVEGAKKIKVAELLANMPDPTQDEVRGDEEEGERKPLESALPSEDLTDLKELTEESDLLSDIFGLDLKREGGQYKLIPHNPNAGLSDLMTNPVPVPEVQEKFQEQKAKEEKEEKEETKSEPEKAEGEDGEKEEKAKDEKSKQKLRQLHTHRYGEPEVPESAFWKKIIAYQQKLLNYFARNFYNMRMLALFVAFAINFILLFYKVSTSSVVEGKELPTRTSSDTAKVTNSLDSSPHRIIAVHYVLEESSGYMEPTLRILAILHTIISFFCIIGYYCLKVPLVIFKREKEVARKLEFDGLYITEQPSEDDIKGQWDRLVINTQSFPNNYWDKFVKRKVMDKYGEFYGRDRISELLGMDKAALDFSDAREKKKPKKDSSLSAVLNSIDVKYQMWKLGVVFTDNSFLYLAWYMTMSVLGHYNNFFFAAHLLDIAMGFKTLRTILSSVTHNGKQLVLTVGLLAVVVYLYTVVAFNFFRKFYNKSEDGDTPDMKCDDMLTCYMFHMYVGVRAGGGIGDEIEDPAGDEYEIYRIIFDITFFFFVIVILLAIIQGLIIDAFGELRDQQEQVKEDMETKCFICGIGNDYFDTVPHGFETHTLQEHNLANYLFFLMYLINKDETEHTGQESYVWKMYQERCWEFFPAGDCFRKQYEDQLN
Description: (FIG. 2A) Representative confocal line scans of Ca2+ sparks in the absence (DMSO) or presence of 25 μM nat-1 or ent-1 in permeabilized Casq2−/− cardiomyocytes. (FIG. 2B) Ca2+ spark frequency in Casq2−/− cells treated with 25 μM nat-1, 7, 8, and their respective enantiomers. (FIG. 2C) Comparison of [3H]ryanodine binding to SR isolated from porcine longissimus dorsi (RyR1) or cardiac ventricle (RyR2) in the presence of 50 μM nat-1, ent-1, or tetracaine (tet). (FIG. 2D) Dose response curves for ent-1 and tet inhibition of [3H]ryanodine binding to RyR2. (FIG. 2E) Representative Ca2+ sparks from permeabilized wild-type cardiomyocytes treated with 3 μM ent-1, 25 μM flecainide, or 50 μM tetracaine. […] SR Ca2+ content was measured as the Ca2+ transient amplitude elicited by application of 10 mM caffeine (n≥5 cells per group). […]
Ventricular mouse myocytes were isolated, permeabilized with saponin to enable equivalent access of the compounds to the SR membrane, and incubated with DMSO or 25 μM nat- and ent-1, 7, 8. RyR2 activity was measured in the form of Ca^2+ sparks, which are elementary Ca^2+ release events generated by spontaneous openings of intracellular RyR2 Ca^2+ release channels. […] To confirm that [Ca^2+]free was not altered by any of the compounds, Fluo-4 fluorescence was measured under spark assay conditions. […]

[3] = [Ca2+]free by Fluo-4 fluorescence under spark assay conditions; format: physicochemical; conditions: 25 μM, 10 minutes in internal spark solution
Description: Ventricular mouse myocytes were isolated, permeabilized with saponin to enable equivalent access of the compounds to the SR membrane, and incubated with DMSO or 25 μM nat- and ent-1, 7, 8. RyR2 activity was measured in the form of Ca^2+ sparks, which are elementary Ca^2+ release events generated by spontaneous openings of intracellular RyR2 Ca^2+ release channels. […] Cardiac SR Ca^2+ release is sensitive to the Ca^2+ concentration present at the cytosolic face of RyR2. To confirm that [Ca^2+]free was not altered by any of the compounds, Fluo-4 fluorescence was measured under spark assay conditions. The internal spark solution was incubated with DMSO or 25 μM nat-1, 7, 8, and their respective enantiomers for 10 minutes and [Ca^2+]free was calculated from a set of Ca^2+ standards.

RyR1 = biological target: T3, RyR1 (Sus scrofa, UniProt P16960); assay: [3H]ryanodine binding to skeletal muscle SR; design: species or system porcine; conditions: 50 μM, three hours
T3 construct: SR isolated from porcine longissimus dorsi (RyR1); from tissue; host or cells: porcine longissimus dorsi sarcoplasmic reticulum
Description: as §1, with “F). […]” for “F).”

insect RyR = conditions: read-out: IC50, binding insect RyR; cited from earlier work
RyR2 [4] = biological target: T2, RyR2; assay: Ca2+ sparks in permeabilized wild-type myocytes; format: cell-based; conditions: 3 μM ent-1, 25 μM flecainide, 50 μM tetracaine
Description: as §1, §2

spontaneous Ca^2+ waves = conditions: 10 μM; cited from earlier work

| SMILES | [3H]ryanodine binding (RyR1 activity) (RyR1) | [3H]ryanodine binding (RyR2 activity) (RyR2 [1]) | Ca2+ spark frequency (RyR2 [4]) | Ca2+ spark mass (RyR2 [4]) | Ca2+ spark mediated SR Ca2+ leak (RyR2 [4]) | further results |
| --- | --- | --- | --- | --- | --- | --- |
| CCCCC[C@@H]1OC(=O)[C@@H](C)N(C)C(=O)[C@H](CCCCC)OC(=O)[C@@H](C)N(C)C(=O)[C@H](CCCCC)OC(=O)[C@@H](C)N(C)C(=O)[C@H](CCCCC)OC(=O)[C@@H](C)N(C)C1=O (single isomer, unassigned) [ent-1, ent-(+)-verticilide] |  |  |  |  |  | IC50 (RyR2 [1]): ~100 nM; maximal inhibition of [3H]ryanodine binding to RyR2 (RyR2 [1]; dose response, cardiac SR): approximately 20%; ECG PR interval (Casq2^−/− mice; index of Ca2+ channel block): no significant effect; ECG QRS duration (Casq2^−/− mice; index of Na+ channel block): no significant effect |
| CCCCCC1OC(=O)C(C)N(C)C(=O)C(CCCCC)OC(=O)C(C)N(C)C(=O)C(CCCCC)OC(=O)C(C)N(C)C(=O)C(CCCCC)OC(=O)C(C)N(C)C1=O (single isomer, unassigned; (-)) [nat-1, (−)-Verticilide] | increased | no effect |  |  |  | Ca2+ spark frequency (RyR2 [2]): no effect; binding to Ca2+ ([Ca2+]free) [3]: did not bind to Ca^2+; IC50 (insect RyR): 4200 nM |
| O=C(NCC1CCCCN1)c1cc(OCC(F)(F)F)ccc1OCC(F)(F)F (stereo not drawn) [flecainide] |  |  | paradoxical increase | reduces the amount of Ca^2+ released during a spark | leak-neutral blocker | effectiveness in suppressing spontaneous Ca2+ waves (spontaneous Ca^2+ waves): 30% |
| CCCCNc1ccc(C(=O)OCCN(C)C)cc1 [tetracaine] | inhibited | inhibited | depresses | did not reduce | only modestly reduces |  |

Reference: US11208435B2, “Verticilide enantiomer and methods of inhibiting cardiac ryanodine receptor-mediated intracellular calcium release” (Vanderbilt University, priority 2017, dated 2021)
